Reference: patent US8337858B2, “Extracts of Aphanizomenon Flos Aquae and nutritional, cosmetic and pharmaceutical compositions containing the same” (Nutratec S.R.L., priority 2006, dated 2012)
Read-outs that look alike come from different tables or passages of the source.

Experiments:
[1] = ORAC (Oxygen Radical Absorbance Capacity) assay with fluorescein and AAPH; format: biochemical; settings: for ORAC value: fluorescein, AAPH 4 mM, 37° C.; for ORACFL value expressed per mg: recalculated from Ou et al., 2001
Description: The ORAC assay was carried out at 37° C. on a FLUOstar OPTIMA spectrofluorimeter (BGM LABTECH, Germany) at 485 nm excitation and 520 nm emission, using the method of Ou et al. (32) with minor modifications. Briefly, in the final assay mixture, fluorescein (FL) (0.05 μM) was used as a target of free radical attack, with AAPH (4 mM) as a peroxyl radical generator. Trolox (1 μM) was used as a control standard and phosphate buffer as a blank. The concentrations of tested compounds in the assay mixture ranged from 0.025 μM to 2 μM. All substances were dissolved and diluted with 75 mM Na-phosphate buffer pH 7; PCB solution was made by dissolving the compound first in ethanol and then bringing the solution to the desired concentration with the buffer. All samples were run in triplicate. Fluorescence was recorded every 5 min after AAPH was added. Final results (ORAC values) were calculated using the differences in the areas under the fluorescence decay curves (AUC) between the sample and blank and expressed as Trolox equivalents: ORAC value=[(AUCsample−AUCblank)/(AUCtrolox−AUCblank)]×(molaritytrolox/molaritysample)
To evaluate the antioxidant capacity of the extract in terms of the ORAC test, we used the same methodology we used to test the ORAC for PC and PCB. In order to test both the water soluble and the lipid soluble components of the AFA extract, we first prepared the two water and lipid soluble extracts, as follows.
Preparation of the Water Soluble Extract • Weigh 10 mg of extract in 1 ml of distilled water and homogenize for 1 min through a mechanical potter. • Centrifuge at 2500 rpm for 10′ at 4° C. to remove cellular debris. • Collect the supernatant and resuspend the pellet in 1 ml of water. • Homogenize for 1 min with a mechanical potter. • Centrifuge at 2500 rpm for 10′ at 4° C. • Collect the supernatant and mix with that obtained from the first water extraction. • Preserve the water extract (with a blue color for the presence of the PC) at +4 o-20° C.
Preparation of the Lipid Soluble Extract • Resuspend the pellet obtained from the previous extraction in 1 ml of acetone. • Homogenize for 1 min with a mechanical potter. • Centrifuge at 2500 rpm for 10′ at 4° C. • Collect the supernatant and resuspend the pellet in 1 ml of acetone. • Homogenize for 1 min with a mechanical potter. • Centrifuge at 2500 rpm for 10′ at 4° C. • Collect the supernatant and mix with that obtained from the first extraction with acetone. • Preserve the lipophilic extract (with an orange color for the presence of carotenes) at +4°-20° C.

COX-1 = target: T1, COX-1 (Ovis aries, UniProt P05979); assay: COX Inhibitor Screening Assay (Cayman), COX-1; format: biochemical
T1 construct: purchased Cayman
T1 sequence (P05979 25-600): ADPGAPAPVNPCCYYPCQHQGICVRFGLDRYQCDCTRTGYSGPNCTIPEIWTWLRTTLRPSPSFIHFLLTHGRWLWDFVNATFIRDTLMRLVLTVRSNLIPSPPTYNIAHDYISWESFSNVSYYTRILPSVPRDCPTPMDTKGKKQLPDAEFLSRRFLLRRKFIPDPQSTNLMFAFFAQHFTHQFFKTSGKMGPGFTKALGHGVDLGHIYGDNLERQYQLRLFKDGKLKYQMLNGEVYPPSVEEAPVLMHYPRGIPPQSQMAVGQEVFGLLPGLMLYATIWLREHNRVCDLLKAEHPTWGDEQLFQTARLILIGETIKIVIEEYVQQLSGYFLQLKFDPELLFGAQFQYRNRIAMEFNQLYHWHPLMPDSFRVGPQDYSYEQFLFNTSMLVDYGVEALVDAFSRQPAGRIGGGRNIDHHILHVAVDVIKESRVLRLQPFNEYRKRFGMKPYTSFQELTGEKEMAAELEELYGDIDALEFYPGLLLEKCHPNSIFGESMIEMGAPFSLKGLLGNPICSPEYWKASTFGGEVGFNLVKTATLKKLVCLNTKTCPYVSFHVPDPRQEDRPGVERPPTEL
Description: (§1) Given that the phycocyanins from Klamath AFA algae are different from the ones from Spirulina, ands that no test has ever been done on their effect on the COX enzymes, we decided to perform such test through the immunoenzymatic kit “COX Inhibitor Screening Assay” of the Cayman company. We thus evaluated the COX-1 and COX-2 inhibition by the AFA extract (both the water soluble part in water, and the lipid soluble in acetone; range 25-200 μg/ml); by the pure PC (0.03-3 μM) and PCB (0-15 μM). The results are shown in FIG. 29, presenting the graphic of the percent activity of COX-1 and COX-2 at the different concentrations of AFA extract, PC and PCB.

COX-2 = target: T2, COX-2 (Homo sapiens, UniProt P35354); assay: COX Inhibitor Screening Assay (Cayman), COX-2; format: biochemical; settings: 0-15 μM
T2 construct: purchased Cayman
T2 sequence (P35354 18-604): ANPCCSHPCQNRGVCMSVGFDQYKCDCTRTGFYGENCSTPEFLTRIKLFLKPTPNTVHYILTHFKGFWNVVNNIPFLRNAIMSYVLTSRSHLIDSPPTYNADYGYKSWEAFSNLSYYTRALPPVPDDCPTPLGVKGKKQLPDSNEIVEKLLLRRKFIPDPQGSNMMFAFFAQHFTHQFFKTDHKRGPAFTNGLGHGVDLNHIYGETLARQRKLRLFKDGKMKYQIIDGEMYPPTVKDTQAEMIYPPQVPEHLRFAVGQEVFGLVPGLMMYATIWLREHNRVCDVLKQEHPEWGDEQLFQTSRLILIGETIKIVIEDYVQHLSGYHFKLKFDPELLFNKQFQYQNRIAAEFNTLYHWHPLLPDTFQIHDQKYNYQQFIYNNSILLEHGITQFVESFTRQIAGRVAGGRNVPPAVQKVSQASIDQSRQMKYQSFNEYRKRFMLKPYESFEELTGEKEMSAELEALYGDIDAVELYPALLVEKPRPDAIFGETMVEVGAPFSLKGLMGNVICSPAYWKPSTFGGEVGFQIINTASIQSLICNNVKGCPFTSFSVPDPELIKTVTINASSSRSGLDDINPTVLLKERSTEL
Description: as §1

[2] = test system: human plasma oxidized by CuCl2; assay: MDA (TBA test) formation in human plasma oxidized by CuCl2; settings: read-out: IC50, metal-induced oxidation of plasma lipids (MDA); plasma incubated 2 hours at 37° C. with CuCl2 (FIG. 9A panel B)
Jurkat cells = assay: Intracellular dichlorofluorescein fluorescence in Jurkat cells oxidized with H2O2; format: cell-based
Description: Starting from the Basic extract, and following the methodology already described, we have purified the AFA-phycocyanin, with its C-PC/PEC complex, to test its antioxidant properties on live cultured cells. The Jurkat cells (immortalized line of leucemia T-lymphocytes) have been subjected to oxidative stress with 500 μM H2O2, together or without increasing dosages of AFA-PC and PCB. The fluorescence emitted by the intracellular probe (dichlorofluorescein), following oxydation from H2O2, has been recorded after 30 minutes of incubation with H2O2 through a fluorimeter (exc. at 492 nm and emission at 520 nm). By incubating cells with both AFA-PC (range 0.1-10 μM) and 500 μM H2O2 for 30 minutes we observe a dose-dependent protective effect with a reduction of intracellular fluorescence induced by H2O2, with an IC50 of 0.5 μM, and a 100% inhibition (non-oxidized cells) at 10 μM (FIG. 13).
The antioxidant properties of the whole PC, composed of C-PC and PEC, resides in its chromophores, which are phycocyanibilin (PCB) for C-PC and both PCB and PVB (phycoviolobilin) for PEC. We have purified the C-PC chromophore PCB, to test it on cultured cells oxidized with H2O2 (range FCB 0.1-40 μM). Also in this case we observe a dose-dependent antioxidant effect with an IC50 of 0.5 μM, and a 100% inhibition (non-oxidized cells) at 40 μM (FIG. 13).
Most importantly, to evaluate the cellular absorption of PC and PCB, both compounds have been pre-incubated for 2 hrs. with the cells; afterwards, the medium has been washed, to exclude any unabsorbed PC and PCB, and the cells have been oxidized for 30 min. with H2O2. As shown by the FIG. 14, there is a dose-dependent inhibition of intracellular fluorescence. This means that the cell is able to retain both antioxidant molecules, either in the membrane or in the cytoplasm.

[3] = Ou et al., 2001; cited from earlier work

`N[C@@H](CCC(=O)N[C@@H](CS)C(=O)NCC(=O)O)C(=O)O` [GSH, reduced glutathione] showed an ORAC value [1] of 0.57 Trolox equiv.

`O=C1O[C@H]([C@@H](O)CO)C(O)=C1O` [AA] showed an ORAC value [1] of 0.75 Trolox equiv.

With phycocyanobilin [PCB] the “effect on COX-1 activity” value (COX-1) was “increases the COX-1 activity”, the “COX-2 inhibition” value (COX-2) was “scarcely inhibitor of the COX-2” and the IC50 [2] was ~160 nM. The “ORAC value expressed per mg” value [1] was 37.0 μmol Trolox/mg, the ORAC value [1] was 22.18 Trolox equiv and the “inhibition of intracellular fluorescence” value (Jurkat cells; 40 μM, together with H2O2) was 100%. The “oxidative effect (increase of intracellular fluorescence)” value (Jurkat cells; incubated 30 minutes with cells without H2O2) was “do not have any oxidative effect”, the “oxidative effect (increase of intracellular fluorescence)” value (Jurkat cells; incubated 2 hrs. with cells) was “did not produce any oxidative effect” and the IC50 (Jurkat cells; incubated together with 500 μM H2O2 for 30 minutes (FIG. 13), read-out: IC50, reduction of intracellular fluorescence induced by H2O2) was 500 nM. For the same molecule, the “protection, absorption test” value (Jurkat cells; pre-incubated 2 hrs., medium washed, then H2O2 30 min (FIG. 14)) was “more than 90%” and the IC50 (Jurkat cells; pre-incubated 2 hrs., medium washed, then H2O2 30 min (FIG. 14), read-out: IC50, inhibition of intracellular fluorescence, absorption test) was 1900 nM.

For `O=c1c(O)c(-c2ccc(O)c(O)c2)oc2cc(O)cc(O)c12` [quercetin], the ORACFL value [3] is given as 7.28 μmol Trolox/μmol compound and the “ORACFL value expressed per mg” value [1] is given as 24.0 μmol Trolox/mg compound.

For `Oc1cc(O)c2c(c1)O[C@H](c1ccc(O)c(O)c1)[C@@H](O)C2` [(+)-catechin], the ORACFL value [3] is listed as 6.76 μmol Trolox/μmol compound and the “ORACFL value expressed per mg” value [1] is listed as 23.3 μmol Trolox/mg compound.
